The structures appear in SMILES notation. Where a SMILES comes first, the peptide text is derived from it. [ ]: non-standard residue; d: D form. The star is where a group is joined. ξ: configuration not given here. ξGly(4-Pip(1-amidino)) = N=C(N)N1CCC(C(N)C(=O)O)CC1; ξGly(piperidin-4-yl) = NC(C(=O)O)C1CCNCC1; Tle = CC(C)(C)[C@H](N)C(=O)O; X1 = O=S(=O)(CCOCCOCCF)CC*

The nature of data set [1]: in vitro stability, incubation in PBS, radio-HPLC. Type of data set: physicochemical. The conditions noted are these: 4 hr post HPLC purification. The method, then: ^18F-DEG-VS (100 μL, 1 mCi) and 30 μL of borate buffer (pH 8.5) were added into Neurotensin (100 μg, […]) or (Ac)-NT and the reaction mixture was incubated at room temperature for 5-10 min. The reaction was quenched by acetic acid (5%, 600 μL) and product was purified by radio HPLC using Method 1. The retention time of ^18F-DEG-VS-NT was 25.6 min and (^18F-DEG-VS)2-NT was not observed. […] An aliquot of the solution was then analyzed by radio-HPLC to determine the radiochemical purify. The retention time of ^18F-DEG-VS-(Ac)-NT was 28.4 min.

Data set [2] addresses T1, NTR1 (Homo sapiens, UniProt P30989).
T1 construct: host or cells: HT-29 human colon adenocarcinoma cells (intact, adherent)
The data set is described as follows: competitive cell-binding assay with 125I-NT(8-13) in HT-29 cells. The conditions noted are these: 1 hr at 37° C, n=3, read-out: IC50, inhibition of binding of 125I-NT(8-13) to NTR1 positive HT-29 cells.
Method: The human colon adenocarcinoma cell HT29 was obtained from American Type Culture Collection and maintained at 37° C. in a humidified atmosphere containing 5% CO2 in RPMI-1640, supplemented with 1% L-glutamine, 1% penicillin/streptomycin and 10% fetal bovine serum (Life Technologies, Inc.).
In detail, HT-29 cells were placed in 48-wells plates (1 million/0.4 mL/well) and were incubated for overnight. The cells were washed three times with binding buffer (50 mM Hepes, 125 mM NaCl, 7.5 mM KCl, 5.5 mM MgCl2, 1 mM EGTA, 5 g/L BSA, 2 mg/L chymostatin, 100 mg/L soybean trypsin inhibitor, 50 mg/L bacitracin, pH 7.4). […] After washing, cells were solubilized with 1 mol/L NaOH at 37° C. and the radioactivity was determined using a gamma counter. The best-fit 50% inhibitory concentration (IC50) values for HT-29 cells were calculated by fitting the data with nonlinear regression using GraphPad Prism (GraphPad Software). Experiments were performed on triplicate samples.

T1 sequence (P30989 whole entry): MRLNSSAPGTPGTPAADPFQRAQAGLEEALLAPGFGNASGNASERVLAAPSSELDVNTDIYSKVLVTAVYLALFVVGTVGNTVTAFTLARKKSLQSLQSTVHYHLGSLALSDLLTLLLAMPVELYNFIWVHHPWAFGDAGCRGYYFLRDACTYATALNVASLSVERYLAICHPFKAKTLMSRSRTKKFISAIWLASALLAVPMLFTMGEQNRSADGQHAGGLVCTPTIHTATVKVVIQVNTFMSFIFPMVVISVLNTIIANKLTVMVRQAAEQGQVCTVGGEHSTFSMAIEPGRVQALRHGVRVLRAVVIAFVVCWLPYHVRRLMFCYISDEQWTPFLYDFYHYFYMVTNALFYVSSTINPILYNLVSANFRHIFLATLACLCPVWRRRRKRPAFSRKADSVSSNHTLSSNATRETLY

`C=CS(=O)(=O)CCOCCOCC[18F]` [^18F-DEG-VS]: in data set [1], the “radiochemical purity after incubation in PBS” value is given as “more than 99%”.
Broadly, the IC50 is the midpoint of a concentration-inhibition curve. Consider `CC(C)C[C@H](NC(=O)[C@@H](NC(=O)[C@H](Cc1ccc(O)cc1)NC(=O)[C@@H]1CCCN1C(=O)[C@H](CCCNC(=N)N)NC(=O)C(NC(=O)[C@@H]1CCCN1C(=O)C(NC(=O)[C@@H](N)CSCCS(=O)(=O)CCOCCOCCF)C1CCNCC1)C1CCN(C(=N)N)CC1)C(C)(C)C)C(=O)O` (stereo partly drawn) [^19F-DEG-VS-NT] (H-C(X1)[ξGly(piperidin-4-yl)]P[ξGly(4-Pip(1-amidino))]RPY[Tle]L-OH), for which the IC50 in data set [2] is 2.03 ± 0.22 nM.

Values taken from patent US10471161B2, “Vinylsulfone-based 18F-labeling compositions and methods and uses thereof” (priority 2014, dated 2019).
